According to patent publication US10398788B2, “Polymer and contrast agent for photoacoustic imaging including the polymer” (CANON KABUSHIKI KAISHA, priority 2014, dated 2019):

Tests used:
[1] = Photo-fading under near-infrared pulse laser irradiation; assay type: physicochemical; conditions: 4 irradiations
Method: With respect to each of Cy7-PMPC (58 k) represented by the formula (47), 700DX-PMPC (57 k) represented by the formula (48), 800CW-PMPC (57 k) represented by the formula (49) and 800RS-PMPC (57 k) represented by the formula (50) obtained in Examples 22, 23, 24 and 25, respectively, and ICG-PMPC (48 k) represented by formula (46) described in Example 12, 2.0 mL of a sample was prepared in which the concentration of each dye-bound PMPC was adjusted so that the absorbance at the maximum absorption wavelength was 0.15. A sample of single ICG as Comparative Example was also prepared. Herein, the irradiation wavelength of near-infrared pulse laser light by use of the PAT apparatus and the excitation wavelength in fluorescence spectrum measurement were set to be the maximum absorption wavelengths of each dye-bound PMPC and ICG. Herein, the excitation wavelengths and the fluorescence emission wavelengths of each dye-bound PMPC and ICG were summarized in FIG. 16. The amount of near-infrared pulse laser light was set to be 8 to 9 mJ at each wavelength, and irradiation at 120 points (detector position) per 20 times was defined as one irradiation and such irradiation was performed at most four times. […] The resultant sample was placed in a 100-μL cuvette, subjected to fluorescence spectrum measurement (FP-6300 manufactured by JASCO Corporation), and studied with respect to photo-fading. […]

[2] = background art; cited from earlier work

CC1(C)C(/C=C/C=C/C=C/C=C2/N(CCCCS(=O)(=O)[O-])c3ccc4ccccc4c3C2(C)C)=[N+](CCCCS(=O)(=O)[O-])c2ccc3ccccc3c21.[Na+] [ICG, indocyanine green]
Photo-fading: normalized fluorescent intensity remaining after laser irradiation [1]: about 15%
Half-life in blood [2]: about several minutes
